From patent publication US20210023233A1, “ANTIBODY-PEPTIDE COMPLEXES AND USES THEREOF” (priority 2018, published 2021)

Test system: CD20+ Daudi human lymphoma cells
Assay: Toxicity of cisplatin-loaded peptide: Daudi cell proliferation/survival after overnight treatment
Format: cell-based
Settings: treated overnight, 100 μg/ml
Method: FIG. 4 is a graph plotting the toxicity of cisplatin-loaded peptide. CD20+ Daudi human lymphoma cells were treated overnight with 100 μg/ml ABRAXANE® (ABX), 100 μg/ml cisplatin (CIS), 1 mg/ml rituximab (RIT), 1 mg/ml peptide only (PEP), 100 μg/ml peptide-loaded cisplatin (PEP+CIS), peptide with rituximab (PEP+RIT), or 100 μg/ml peptide-loaded cisplatin with rituximab (PEP+CIS+RIT).
CD20+ Daudi human lymphoma cells were treated overnight with 100 μg/ml ABRAXANE® (ABX), 100 μg/ml cisplatin (CIS), 1 mg/ml rituximab (RIT), 1 mg/ml peptide (SEQ ID NO:2) only (PEP), 100 μg/ml peptide-loaded cisplatin (PEP+CIS), peptide with rituximab (PEP+RIT), or 100 μg/ml peptide-loaded cisplatin with rituximab (PEP+CIS+RIT), and cell survival was assessed (FIG. 4).

N.N.[Cl][Pt][Cl] [cisplatin]
Toxicity to Daudi cells compared with cisplatin-containing peptide (in words): equivalent

PEP+CIS (VVLCQLCVLHEKTPVSDR)
Daudi proliferation, % of the total (control) proliferation: 80%
